25 compounds from patent US20240270740A1, “INHIBITORS OF CYCLIC GMP-AMP SYNTHASE AND USES THEREOF” (Ventus Therapeutics U.S., Inc., priority 2022, published 2024) can be followed below.

For orientation: IC50 means the concentration that gives 50% inhibition.

Sequence of hcGAS (Q8N884 whole entry): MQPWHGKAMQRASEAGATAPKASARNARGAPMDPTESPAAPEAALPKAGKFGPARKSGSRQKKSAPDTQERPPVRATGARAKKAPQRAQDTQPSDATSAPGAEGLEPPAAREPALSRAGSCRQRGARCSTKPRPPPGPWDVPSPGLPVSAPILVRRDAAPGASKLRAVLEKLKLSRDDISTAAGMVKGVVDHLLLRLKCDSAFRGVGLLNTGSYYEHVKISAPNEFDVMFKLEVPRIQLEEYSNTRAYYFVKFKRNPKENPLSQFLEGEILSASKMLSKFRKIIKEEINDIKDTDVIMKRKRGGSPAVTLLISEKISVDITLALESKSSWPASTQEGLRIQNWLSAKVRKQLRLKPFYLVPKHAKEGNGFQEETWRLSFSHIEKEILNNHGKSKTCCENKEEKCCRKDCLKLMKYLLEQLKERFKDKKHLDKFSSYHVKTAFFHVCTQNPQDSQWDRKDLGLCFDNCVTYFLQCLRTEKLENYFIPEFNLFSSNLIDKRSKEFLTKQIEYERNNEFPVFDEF

The assay has as its target hcGAS (Homo sapiens, UniProt Q8N884). The assay can be described thus: hcGAS LCMS assay (direct measurement of cGAMP production). The settings on record: 0.5 nM hcGAS, 100 μM ATP, 100 μM GTP, 25 nM dsDNA, 4 h incubation. In kind it is biochemical. The method, then: cGAS catalyzes the cyclization of ATP and GTP to produce cGAMP, which is the activating ligand of STING. Human cGAS (hcGAS) inhibition can thus be quantified by measuring how much cGAMP is formed either indirectly, by monitoring ATP-depletion as in the hcGAS Kinase-Glo assay (as described below), or directly, such as using the hcGAS LCMS assay (as described below).
Compounds were tested for their h-cGAS inhibition activity using direct measurement of cGAMP production by LC/MS. Briefly, compounds were incubated with enzyme and substrates for 4 hours (see Table C), before the reaction was stopped with 3 volumes of 70/30 Acetonitrile/H2O mix containing 0.15 mM cGAMP-^13C10^5N5 as internal standard and mixed for […]. After centrifugation (3700 rpm, 10 min, 10° Celsius), […] of each reaction was collected and mixed to equal volume of Acetonitrile. Samples were then analyzed on Qexective (Column: XBridge BEH Amide Column, 130 Å, 3.5 μm, 3 mm×50 mm, Mobile phase A: 10 mM Ammonium acetate in 95/5% H2O/Acetonitrile (0.5% DMSO), Mobile phase B: Acetonitrile (0.5% DMSO).
The results of the assay, expressed as IC50 values, are reported in Table D with the following designations: A represents an IC50 value<0.005 μM; B represents an IC50 value≥0.005 μM and <0.02 μM, C represents an IC50 value≥0.02 μM and <0.06 μM; D represents an IC50 value≥0.06 and <0.2 μM; E represents an IC50 value≥0.2.
With `COc1c(NC2CCCC2(C)O)cc(C(=O)Nc2nnc(-n3nccc3C)s2)oc1=O` (racemic) [Rac-167, 4-((2-hydroxy-2-methylcyclopentyl)amino)-3-methoxy-N-(5-(5-methyl-1H-pyrazol-1-yl)-1,3,4-thiadiazol-2-yl)-2-oxo-2H-pyran-6-carboxamide], the 50% inhibitory concentration (IC50) is below 5 nM.

As for `COc1c(N[C@H]2CCN(C)C2=O)cc(C(=O)Nc2nnc(-n3nccc3C)s2)oc1=O` (single isomer, unassigned) [71*], the IC50 was in the range of 5 to 20 nM.

As for `COCC1(Nc2cc(C(=O)Nc3nnc(-n4nccc4C)s3)oc(=O)c2OC)CC1` [Compound 97, 3-methoxy-4-((1-(methoxymethyl)cyclopropyl)amino)-N-(5-(5-methyl-1H-pyrazol-1-yl)-1,3,4-thiadiazol-2-yl)-2-oxo-2H-pyran-6-carboxamide], the IC50 was 5 to 20 nM.

In turn, `COC[C@@H](C1CC1)N1CCOc2c1cc(C(=O)Nc1nnc(-n3nccc3C)s1)oc2=O` [Compound 225, (R)-1-(1-cyclopropyl-2-methoxyethyl)-N-(5-(5-methyl-1H-pyrazol-1-yl)-1,3,4-thiadiazol-2-yl)-5-oxo-1,2,3,5-tetrahydropyrano[3,4-b][1,4]oxazine-7-carboxamide] gave an IC50 below 5 nM.

On to `COc1c(N[C@H]2CCC[C@H]2OC)cc(C(=O)Nc2nnc(-c3c(Cl)ccn3C)s2)oc1=O` (single isomer, unassigned) [47*], for which the IC50 is below 5 nM.

Turning to `COc1c(NC[C@H](C)OC)cc(C(=O)Nc2nnc(-c3c(Cl)ccn3C)s2)oc1=O` [Compound 193, (S)-N-(5-(3-chloro-1-methyl-1H-pyrrol-2-yl)-1,3,4-thiadiazol-2-yl)-3-methoxy-4-((2-methoxypropyl)amino)-2-oxo-2H-pyran-6-carboxamide], the IC50 was below 5 nM.

`COC[C@@H]1CCN1c1cc(C(=O)Nc2nnc(-n3nccc3C)s2)oc(=O)c1OC` [Compound 95, (S)-3-methoxy-4-(2-(methoxymethyl)azetidin-1-yl)-N-(5-(5-methyl-1H-pyrazol-1-yl)-1,3,4-thiadiazol-2-yl)-2-oxo-2H-pyran-6-carboxamide] displayed an IC50 of 5 to 20 nM.

Take `COCC(C)(C)COc1c(NC23CC(C2)C3)cc(C(=O)Nc2nnc(-n3nccc3C)s2)oc1=O` [Compound 149, 4-(bicyclo[1,1,1]pentan-1-ylamino)-(3-methoxy-2,2-dimethylpropoxy)-N-(5-(5-methyl-1H-pyrazol-1-yl)-1,3,4-thiadiazol-2-yl)-2-oxo-2H-pyran-6-carboxamide]: the half-inhibitory concentration (IC50) is 5 to 20 nM.

For `COc1c(N[C@H](C)[C@@H](C)OC)cc(C(=O)Nc2nnc(-n3nccc3C)s2)oc1=O` [Compound 161, 5-methoxy-4-{[(2R,3R)-3-methoxybutan-2-yl]amino}-N-[5-(5-methylpyrazol-1-yl)-1,3,4-thiadiazol-2-yl]-6-oxopyran-2-carboxamide], the 50% inhibitory concentration (IC50) was below 5 nM.

Turning to “4-(((1S,2R)-2-(hydroxymethyl)cyclopentyl)amino)-3-methoxy-N-(5-(5-methyl-1H-pyrazol-1-yl)-1,3,4-thiadiazol-2-yl)-2-oxo-2H-pyran-6-carboxamide [Rac-55]”, the concentration for half-maximal inhibition (IC50) is at least 200 nM.

`COC[C@H](Nc1cc(C(=O)Nc2nnc(-n3nccc3C)s2)oc(=O)c1OC)c1ccccc1OC` (single isomer, unassigned) [198*] showed a concentration for half-maximal inhibition (IC50) of 20 to 60 nM.

`COc1c(NC23CC(C2)C3)cc(C(=O)Nc2nnc(-n3nccc3N)s2)oc1=O` [Compound 178, N-(5-(5-amino-1H-pyrazol-1-yl)-1,3,4-thiadiazol-2-yl)-4-(bicyclo[1.1.1]pentan-1-ylamino)-3-methoxy-2-oxo-2H-pyran-6-carboxamide] returned an IC50 of 20 to 60 nM.

`COC[C@H]1CCC[C@H]1Nc1cc(C(=O)Nc2nnc(-n3nccc3C)s2)oc(=O)c1OC` (single isomer, unassigned) [Compound 80*] displayed an IC50 of at least 200 nM.

The compound `COc1c(N2CCC[C@@H]2CC#N)cc(C(=O)Nc2nnc(-n3nccc3C)s2)oc1=O` [Compound 174, (R)-4-(2-(cyanomethyl)pyrrolidin-1-yl)-3-methoxy-N-(5-(5-methyl-1H-pyrazol-1-yl)-1,3,4-thiadiazol-2-yl)-2-oxo-2H-pyran-6-carboxamide] returned a half-maximal inhibitory concentration (IC50) of 20 to 60 nM.

Regarding `COCC1(Nc2cc(C(=O)Nc3nnc(-n4nccc4C)s3)oc(=O)c2OC)CCC1` [Compound 196], the half-inhibitory concentration (IC50) fell in the range of 5 to 20 nM.

`COc1c(N[C@H]2CCCC[C@@H]2OC)cc(C(=O)Nc2nnc(-n3nccc3C)s2)oc1=O` [Compound 70, 3-methoxy-4-(((1S,2S)-2-methoxycyclohexyl)amino)-N-(5-(5-methyl-1H-pyrazol-1-yl)-1,3,4-thiadiazol-2-yl)-2-oxo-2H-pyran-6-carboxamide]: the IC50 lay within 5 to 20 nM.

With `COC[C@H](Nc1cc(C(=O)Nc2nnc(-n3nccc3C)s2)oc(=O)c1OC)C(C)C` [Compound 78, (R)-3-methoxy-4-((1-methoxy-3-methylbutan-2-yl)amino)-N-(5-(5-methyl-1H-pyrazol-1-yl)-1,3,4-thiadiazol-2-yl)-2-oxo-2H-pyran-6-carboxamide], the half-inhibitory concentration (IC50) was below 5 nM.

Consider `COC[C@H](C1CC1)N1CCOc2c1cc(C(=O)Nc1nnc(-n3nccc3C)s1)oc2=O` [Compound 226, (S)-1-(1-cyclopropyl-2-methoxyethyl)-N-(5-(5-methyl-1H-pyrazol-1-yl)-1,3,4-thiadiazol-2-yl)-5-oxo-1,2,3,5-tetrahydropyrano[3,4-b][1,4]oxazine-7-carboxamide], for which the half-maximal inhibitory concentration (IC50) was below 5 nM.

For `COC[C@]1(Nc2cc(C(=O)Nc3nnc(-n4nccc4C)s3)oc(=O)c2OC)CCOC1` (single isomer, unassigned) [Compound 101*], the IC50 is 5 to 20 nM.

As to `COCC1(Nc2cc(C(=O)Nc3nnc(-n4nccc4C)s3)oc(=O)c2OC)CCCC1` [Compound 152, 3-methoxy-4-((1-(methoxymethyl)cyclopentyl)amino)-N-(5-(5-methyl-1H-pyrazol-1-yl)-1,3,4-thiadiazol-2-yl)-2-oxo-2H-pyran-6-carboxamide], the concentration for half-maximal inhibition (IC50) was 5 to 20 nM.

As for `COc1c(N[C@H]2CCC[C@@H]2OC)cc(C(=O)Nc2nnc(-n3nccc3C)s2)oc1=O` (single isomer, unassigned) [4*], the IC50 fell in the range of 5 to 20 nM.

Consider `COCCN(CCO)c1cc(C(=O)Nc2nnc(-n3nccc3C)s2)oc(=O)c1OC` (single isomer, unassigned) [Compound 157, 4-((2-hydroxyethyl)(2-methoxyethyl)amino)-3-methoxy-N-(5-(5-methyl-1H-pyrazol-1-yl)-1,3,4-thiadiazol-2-yl)-2-oxo-2H-pyran-6-carboxamide], for which the IC50 is at least 200 nM.

In turn, `COc1c(N2C[C@H](OC)CC2=O)cc(C(=O)Nc2nnc(-n3nccc3C)s2)oc1=O` [Compound 154, (R)-3-methoxy-4-(4-methoxy-2-oxopyrrolidin-1-yl)-N-(5-(5-methyl-1H-pyrazol-1-yl)-1,3,4-thiadiazol-2-yl)-2-oxo-2H-pyran-6-carboxamide] returned an IC50 of 20 to 60 nM.

With `CC[C@H](COC)Nc1cc(C(=O)Nc2nnc(-n3nccc3C)s2)oc(=O)c1OC` (single isomer, unassigned) [191*], the 50% inhibitory concentration (IC50) was in the range of 20 to 60 nM.

`COc1c(NC[C@H]2CCO2)cc(C(=O)Nc2nnc(-n3nccc3C)s2)oc1=O` [Compound 118, (R)-3-methoxy-N-(5-(5-methyl-1H-pyrazol-1-yl)-1,3,4-thiadiazol-2-yl)-4-((oxetan-2-ylmethyl)amino)-2-oxo-2H-pyran-6-carboxamide]: the IC50 was 5 to 20 nM.
